Assay results: patent publication US11912794B2, “Modulation of structured polypeptide specificity” (BicycleRD Limited, priority 2011, dated 2024)
Like-named read-outs stand apart in the source and are kept apart here. Numbered stars: 1 amine (or outer) side, 2 acyl side, 3 side chain; on linkers, the order of the positions; unused ones are H or OH. Bridge positions count the residues as written; N and C are the ends. Square brackets hold non-standard residues; d marks the D form. Peptide text beside a SMILES is read from it. 1Nal = N[C@@H](Cc1cccc2ccccc12)C(=O)O; TBMB = c1c(C[*:1])cc(C[*:3])cc1C[*:2]; NMeR = CN[C@@H](CCCNC(=N)N)C(=O)O; 3Pal = N[C@@H](Cc1cccnc1)C(=O)O; 4Pal = N[C@@H](Cc1ccncc1)C(=O)O; Cha = N[C@@H](CC1CCCCC1)C(=O)O; Aze = O=C(O)[C@@H]1CCN1; Sar = CNCC(=O)O

Target: T1, human plasma Kallikrein (Homo sapiens, UniProt P03952)
T1 construct: purchased Stratech, UK
Experiment: Functional enzyme inhibition assay, fluorogenic substrate Z-PheArg-AMC
Type: biochemical
Conditions: for loss in potency / reduction in affinity compared to wildtype: vs Ac-06-34-18(TMB)-NH2
Experimental: Peptides were dissolved as the TFA-salts in their powder form, and stock solutions were usually prepared in water. All solutions were centrifuged and filtered ([…] syringe filters) prior absorption measurement at 280 nm. […] For peptides containing non-natural amino acids with suspected chromophoric properties (i.e. NorHar, 4PhenylPro, 3PaI, 4PaI, Tic, 4GuanPhe, 4,4-BPAI, 3,3-DPA, 1NAI, 2NAI, 4BenzylPro, Ind) concentrations were determined by weighing the powder and dissolving the peptide in a defined quantity of water.

[1] = Ki (nM) (human kallikrein), Ac-06-34-18(TMB)-NH2 series

T1 sequence (P03952 20-638): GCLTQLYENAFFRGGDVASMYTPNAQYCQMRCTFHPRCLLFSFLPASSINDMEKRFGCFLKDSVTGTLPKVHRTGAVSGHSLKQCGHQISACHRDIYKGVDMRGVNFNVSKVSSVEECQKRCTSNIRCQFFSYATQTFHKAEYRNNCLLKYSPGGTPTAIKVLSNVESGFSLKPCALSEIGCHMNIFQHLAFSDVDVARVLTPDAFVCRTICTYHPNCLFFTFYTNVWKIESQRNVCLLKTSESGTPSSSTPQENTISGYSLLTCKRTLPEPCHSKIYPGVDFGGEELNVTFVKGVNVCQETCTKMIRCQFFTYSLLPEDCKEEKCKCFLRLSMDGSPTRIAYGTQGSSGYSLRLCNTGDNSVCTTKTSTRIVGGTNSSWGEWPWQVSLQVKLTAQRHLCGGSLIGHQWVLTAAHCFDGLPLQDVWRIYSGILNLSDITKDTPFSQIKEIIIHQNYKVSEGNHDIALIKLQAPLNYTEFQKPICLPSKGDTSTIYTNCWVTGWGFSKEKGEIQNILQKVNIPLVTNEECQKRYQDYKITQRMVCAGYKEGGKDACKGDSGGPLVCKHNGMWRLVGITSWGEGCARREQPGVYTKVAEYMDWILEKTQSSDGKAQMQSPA

loss in potency / reduction in affinity compared to wildtype | Structure (SMILES) | Ki [1] | also measured
– | CC(C)C[C@@H]1NC(=O)[C@H](CC(=O)O)NC(=O)[C@H](CCC(N)=O)NC(=O)[C@H](Cc2c[nH]cn2)NC(=O)[C@H](C)NC(=O)[C@@H]2CSCc3cc(cc(c3)CSC[C@@H](C(=O)N[C@@H](C)C(N)=O)NC1=O)CSC[C@H](NC(=O)[C@H](C)N)C(=O)N[C@@H](C)C(=O)N[C@@H](Cc1c[nH]c3ccccc13)C(=O)N1CCC[C@H]1C(=O)N[C@@H](C)C(=O)N[C@@H](CCCNC(=N)N)C(=O)N2 [06-34-03 - Ala1,6] (H-ACAWPARCAHQDLCA-NH2; linker 2-8-14 via TBMB; N-terminus and C-terminus assumed) | – | potency against human plasma Kallikrein compared to parent: retained full potency
– | CC(C)C[C@@H]1NC(=O)[C@H](CC(=O)O)NC(=O)[C@H](CCC(N)=O)NC(=O)[C@H](Cc2c[nH]cn2)NC(=O)CN(C)C(=O)[C@@H]2CSCc3cc(cc(c3)CSC[C@H](NC(=O)[C@H](C)N)C(=O)N(C)CC(=O)N[C@@H](Cc3c[nH]c4ccccc34)C(=O)N3CCC[C@H]3C(=O)N[C@@H](C)C(=O)N[C@@H](CCCNC(=N)N)C(=O)N2)CSC[C@@H](C(=O)N[C@@H](C)C(N)=O)NC1=O [06-34-03 - N-MeGly1,6, AC N-MeGWPARCN-MeGHQDLCA] (H-AC[Sar]WPARC[Sar]HQDLCA-NH2; linker 2-8-14 via TBMB; N-terminus and C-terminus assumed) | – | potency against human plasma Kallikrein compared to parent: reduction in potency
– | CC(=O)N[C@H]1CSCc2cc3cc(c2)CSC[C@H](NC(=O)[C@H](CCCNC(=N)N)NC(=O)[C@H](Cc2ccc(O)cc2)NC(=O)[C@@H]2CCCN2C(=O)[C@H](Cc2cccnc2)NC(=O)[C@H](CO)NC1=O)C(=O)N[C@@H](CC(C)C)C(=O)N[C@@H](Cc1c[nH]cn1)C(=O)N[C@@H](CCC(N)=O)C(=O)N[C@@H](CC(=O)O)C(=O)N[C@@H](CC(C)C)C(=O)N[C@H](C(N)=O)CSC3 [Ac-(06-34-18) 3Pal2 Tyr4] (Ac-CS[3Pal]PYRCLHQDLC-NH2; linker 1-7-13 via TBMB) | – | Ki (Ki, text b293, unit inferred): 0.91 nM
2 fold | CC(=O)N[C@H]1CSCc2cc3cc(c2)CSC[C@H](NC(=O)[C@H](Cc2ccc(NC(=N)N)cc2)NC(=O)[C@H](C)NC(=O)[C@@H]2CCCN2C(=O)[C@H](Cc2c[nH]c4ccccc24)NC(=O)[C@H](CO)NC1=O)C(=O)N[C@@H](CC(C)C)C(=O)N[C@@H](Cc1c[nH]cn1)C(=O)N[C@@H](CCC(N)=O)C(=O)N[C@@H](CC(=O)O)C(=O)N[C@@H](CC(C)C)C(=O)N[C@H](C(N)=O)CSC3 [Ac-(06-34-18) 4GuanPhe5] | – | –
– | CC(=O)N[C@H]1CSCc2cc3cc(c2)CSC[C@H](NC(=O)[C@H](CCCNC(=N)N)NC(=O)[C@H](Cc2ccc(O)cc2)NC(=O)[C@@H]2CCCN2C(=O)[C@H](Cc2ccncc2)NC(=O)[C@H](CO)NC1=O)C(=O)N[C@@H](CC(C)C)C(=O)N[C@@H](Cc1c[nH]cn1)C(=O)N[C@@H](CCC(N)=O)C(=O)N[C@@H](CC(=O)O)C(=O)N[C@@H](CC(C)C)C(=O)N[C@H](C(N)=O)CSC3 [Ac-(06-34-18) 4Pal2 Tyr4] (Ac-CS[4Pal]PYRCLHQDLC-NH2; linker 1-7-13 via TBMB) | 3.56 nM | –
7000 fold | CC(=O)N[C@H]1CSCc2cc3cc(c2)CSC[C@H](NC(=O)[C@H](CCCNC(=N)N)NC(=O)[C@@H](C)NC(=O)[C@@H]2CCCN2C(=O)[C@H](Cc2c[nH]c4ccccc24)NC(=O)[C@H](CO)NC1=O)C(=O)N[C@@H](CC(C)C)C(=O)N[C@@H](Cc1c[nH]cn1)C(=O)N[C@@H](CCC(N)=O)C(=O)N[C@@H](CC(=O)O)C(=O)N[C@@H](CC(C)C)C(=O)N[C@H](C(N)=O)CSC3 [Ac-(06-34-18) D-Ala4] | – | –
300 fold | CC(=O)N[C@H]1CSCc2cc3cc(c2)CSC[C@H](NC(=O)[C@@H](CCCNC(=N)N)NC(=O)[C@H](C)NC(=O)[C@@H]2CCCN2C(=O)[C@H](Cc2c[nH]c4ccccc24)NC(=O)[C@H](CO)NC1=O)C(=O)N[C@@H](CC(C)C)C(=O)N[C@@H](Cc1c[nH]cn1)C(=O)N[C@@H](CCC(N)=O)C(=O)N[C@@H](CC(=O)O)C(=O)N[C@@H](CC(C)C)C(=O)N[C@H](C(N)=O)CSC3 [Ac-(06-34-18) D-Arg5] | – | –
45000 fold | CC(=O)N[C@H]1CSCc2cc3cc(c2)CSC[C@H](NC(=O)[C@H](CCCNC(=N)N)NC(=O)[C@H](C)NC(=O)[C@@H]2CCCN2C(=O)[C@@H](Cc2c[nH]c4ccccc24)NC(=O)[C@H](CO)NC1=O)C(=O)N[C@@H](CC(C)C)C(=O)N[C@@H](Cc1c[nH]cn1)C(=O)N[C@@H](CCC(N)=O)C(=O)N[C@@H](CC(=O)O)C(=O)N[C@@H](CC(C)C)C(=O)N[C@H](C(N)=O)CSC3 [Ac-(06-34-18) D-Trp2] | – | –
– | CC(=O)N[C@H]1CSCc2cc3cc(c2)CSC[C@H](NC(=O)[C@H](CCCNC(=N)N)NC(=O)[C@H](Cc2cccc4ccccc24)NC(=O)[C@@H]2CCCN2C(=O)[C@H](Cc2ccccc2)NC(=O)[C@H](CO)NC1=O)C(=O)N[C@@H](CC(C)C)C(=O)N[C@@H](Cc1c[nH]cn1)C(=O)N[C@@H](CCC(N)=O)C(=O)N[C@@H](CC(=O)O)C(=O)N[C@@H](CC(C)C)C(=O)N[C@H](C(N)=O)CSC3 [Ac-(06-34-18) Phe2 1Nal4] (Ac-CSFP[1Nal]RCLHQDLC-NH2; linker 1-7-13 via TBMB) | 13.5 nM | –
– | CC(=O)N[C@H]1CSCc2cc3cc(c2)CSC[C@H](NC(=O)[C@H](CCCNC(=N)N)NC(=O)[C@H](Cc2ccncc2)NC(=O)[C@@H]2CCCN2C(=O)[C@H](Cc2ccccc2)NC(=O)[C@H](CO)NC1=O)C(=O)N[C@@H](CC(C)C)C(=O)N[C@@H](Cc1c[nH]cn1)C(=O)N[C@@H](CCC(N)=O)C(=O)N[C@@H](CC(=O)O)C(=O)N[C@@H](CC(C)C)C(=O)N[C@H](C(N)=O)CSC3 [Ac-(06-34-18) Phe2 4Pal4] (Ac-CSFP[4Pal]RCLHQDLC-NH2; linker 1-7-13 via TBMB) | 2.2 nM | –
– | CC(=O)N[C@H]1CSCc2cc3cc(c2)CSC[C@H](NC(=O)[C@H](CCCNC(=N)N)N(C)C(=O)[C@H](Cc2ccc(O)cc2)NC(=O)[C@@H]2CCN2C(=O)[C@H](Cc2ccccc2)NC(=O)[C@H](CO)NC1=O)C(=O)N[C@@H](CC(C)C)C(=O)N[C@@H](Cc1c[nH]cn1)C(=O)N[C@@H](CCC(N)=O)C(=O)N[C@@H](CC(=O)O)C(=O)N[C@@H](CC(C)C)C(=O)N[C@H](C(N)=O)CSC3 [Ac-(06-34-18) Phe2 Aze3Tyr4 NMeArg5] (Ac-CSF[Aze]Y[NMeR]CLHQDLC-NH2; linker 1-7-13 via TBMB) | – | Ki (Ac-06-34-18(TMB)-NH2 series, read-out: Ki (nM) (human kallikrein)): < 1 nM
– | CC(=O)N[C@H]1CSCc2cc3cc(c2)CSC[C@H](NC(=O)[C@H](CCCNC(=N)N)NC(=O)[C@H](CC2CCCCC2)NC(=O)[C@@H]2CCCN2C(=O)[C@H](Cc2ccccc2)NC(=O)[C@H](CO)NC1=O)C(=O)N[C@@H](CC(C)C)C(=O)N[C@@H](Cc1c[nH]cn1)C(=O)N[C@@H](CCC(N)=O)C(=O)N[C@@H](CC(=O)O)C(=O)N[C@@H](CC(C)C)C(=O)N[C@H](C(N)=O)CSC3 [Ac-(06-34-18) Phe2 Cha4] (Ac-CSFP[Cha]RCLHQDLC-NH2; linker 1-7-13 via TBMB) | 0.91 nM | –
– | CN=C(NC)NCCC[C@@H]1NC(=O)[C@H](C)NC(=O)[C@@H]2CCCN2C(=O)[C@H](Cc2c[nH]c3ccccc23)NC(=O)[C@H](CO)NC(=O)[C@@H](NC(C)=O)CSCc2cc3cc(c2)CSC[C@H](NC1=O)C(=O)N[C@@H](CC(C)C)C(=O)N[C@@H](Cc1c[nH]cn1)C(=O)N[C@@H](CCC(N)=O)C(=O)N[C@@H](CC(=O)O)C(=O)N[C@@H](CC(C)C)C(=O)N[C@H](C(N)=O)CSC3 [Ac-(06-34-18) SDMA5] | 1410 nM | –
